The results in this text go back to patent publication US11098203B2, “Polymer coatings” (COMMONWEALTH SCIENTIFIC AND INDUSTRIAL RESEARCH ORGANISATION, priority 2016, dated 2021).

Broadly, the melting point is the temperature, or range, at which the solid turns liquid.

With `C=CC(=O)N1C(=C)C(c2ccccc2F)CC1=O` (stereo not shown) [DHP, 5-methylene-1-(prop-2-enoyl)-4-(2-fluorophenyl)-dihydropyrrol-2-one], the melting point was 121 to 122 °C.
